# Measured values: patent publication US20120316105A1, “Polymyxin Derivates Useful As Antibacterial Agents” (priority 2011, published 2012)
# Bridge positions count the residues as written; N and C are the ends. Square brackets hold non-standard residues; d marks the D form. Peptide text beside a SMILES is read from it. * marks the point of attachment. X13 = N#Cc1ccc(-c2cc(C(=O)*)ccc2F)cc1; X17 = N#Cc1ccc(-c2cccc(C(=O)*)c2)cc1; X19 = N#Cc1ccc(-c2cccc(C(=O)*)c2)nc1; X2 = N#Cc1ccc(-c2cc(C(=O)*)ccn2)cc1F; X22 = COc1cccc(-c2cc(C(=O)*)ccn2)c1; X25 = O=C(c1ccc(Cl)c(-c2ccccn2)c1)*; X16 = O=C(c1ccc(-c2ccccc2)nc1)*; X27 = O=C(c1cncc(-c2ccccc2)c1)*; X14 = CC(C)c1cccc(C(=O)*)c1; Dab = NCC[C@H](N)C(=O)O; Dap = NC[C@H](N)C(=O)O
# Assays:
# [1] = tested on: PA-1646, polymyxin-resistant clinical isolate of Pseudomonas aeruginosa; type: cell-based; conditions: PA-1646, polymyxin-resistant clinical isolate of
# Outline: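 Broth dilution MIC and bactericidal (MBC) testing per CLSI methods (M7-A8, M100-S20, M26-A) against polymyxin-resistant clinical P. aeruginosa isolate PA-1646. Compounds tested as trifluoroacetate salts, one as sulfate salt; values in mg/L.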
# [2] = tested on: AB-1649, polymyxin-resistant clinical isolate of Acinetobacter baumannii; type: cell-based; conditions: AB-1649, polymyxin-resistant clinical isolate of
# Outline: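 Broth dilution MIC per CLSI against the polymyxin-resistant A. baumannii isolate, 2-fold dilutions, overnight incubation, visual read of lowest concentration inhibiting growth. Run in duplicate, lower value reported when within 2-fold; MBC per CLSI M26-A guideline.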
# [3] = tested on: AB-3167, clinical isolate of Acinetobacter baumannii; type: cell-based; conditions: AB-3167, clinical isolate of
# Outline: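 Broth dilution MIC per CLSI (M7-A8, M100-S20, M26-A for bactericidal), 2-fold dilution series, overnight incubation, visual read of lowest concentration inhibiting growth versus drug-free control. Duplicates run; lower value reported if within 2-fold, otherwise repeated. Compounds tested as trifluoroacetate salts; QC strains and reference compounds required in range.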
# [4] = tested on: PA-1646, polymyxin-resistant clinical isolate of Pseudomonas aeruginosa; type: cell-based; conditions: PA-1646, polymyxin-resistant clinical isolate of; remark: listed apart in the source
# Outline: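 Broth dilution MIC per CLSI with 2-fold concentration steps, read visually after overnight incubation as lowest concentration inhibiting growth; duplicates within 2-fold, lower value reported, with QC strains and reference compounds. Compounds tested as trifluoroacetate salts, polymyxin B as sulfate.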
# [5] = tested on: Pseudomonas aeruginosa strain PA01; type: cell-based; conditions: strain
# Outline: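 CLSI broth dilution against P. aeruginosa PA01 with two-fold concentration steps and overnight incubation; MIC is lowest concentration visibly inhibiting growth versus drug-free control, in mg/L. Compounds tested as trifluoroacetate salts, in duplicate, lower value reported if within 2-fold; control organisms and reference compounds included.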
# [6] = tested on: AB-1649, polymyxin-resistant clinical isolate of Acinetobacter baumannii; type: cell-based; conditions: AB-1649, polymyxin-resistant clinical isolate of; remark: listed apart in the source
# Outline: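 MIC and MBC were measured by CLSI broth dilution methods (M7-A8, M100-S20, M26-A) against a polymyxin-resistant clinical isolate and reported in mg/L. Compounds were tested as trifluoroacetate salts, with one exception tested as the sulfate.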
# [7] = tested on: EC-1, mouse virulent strain of Escherichia coli; type: cell-based; conditions: E. coli EC-1; overnight incubation, lower of duplicate values; trifluoroacetate salt (Example 1 and PMB sulfate)
# Outline: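 Compounds were tested mostly as trifluoroacetate salts. Duplicate CLSI broth-dilution MICs were read visually after overnight incubation over 2-fold dilutions, with the lower of duplicates within 2-fold taken. QC organisms and reference drugs were included in each run.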
# [8] = Cytotoxicity assay (LDH release), hRPTEC; type: cell-based, human; conditions: human
# Outline: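 hRPTEC grown 72 h in REGM, then exposed to compounds at 100, 67, 44, 30, 20 and 13 micromolar for 24 h at 37° C, 5% CO2. LDH released into supernatant measured; TC50 (micromolar) derived. Compounds tested as trifluoroacetate salts unless otherwise noted.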
smiles,measurement,setting,value
CC(C)C[C@@H]1NC(=O)[C@@H](Cc2ccccc2)NC(=O)[C@H](CCN)NC(=O)[C@@H](NC(=O)[C@H](CN)NC(=O)[C@@H](NC(=O)[C@H](CCN)NC(=O)c2cccc(C(C)C)c2)[C@@H](C)O)CCNC(=O)[C@H]([C@@H](C)O)NC(=O)[C@H](CCN)NC(=O)[C@H](CCN)NC1=O [Example 25] (X14-[Dab]T[Dap][Dab][Dab][dF]L[Dab][Dab]T; lactam 4-C),PA-1646 MBC,[1],16 mg/L
same,AB-1649 MIC,[2],4 mg/L
same,AB-3167 MIC,[3],0.25 mg/L
same,PA-1646 MIC,[4],4 mg/L
same,PA01 MIC,[5],1 mg/L
same,AB-1649 MBC,[6],4 mg/L
same,EC-1 MIC,[7],0.25 mg/L
same,CC50 at 24 h,[8],88 µM
CC(C)C[C@@H]1NC(=O)[C@@H](Cc2ccccc2)NC(=O)[C@H](CCN)NC(=O)[C@@H](NC(=O)[C@H](CN)NC(=O)[C@@H](NC(=O)[C@H](CCN)NC(=O)c2cccc(-c3ccc(C#N)cn3)c2)[C@@H](C)O)CCNC(=O)[C@H]([C@@H](C)O)NC(=O)[C@H](CCN)NC(=O)[C@H](CCN)NC1=O [Example 26] (X19-[Dab]T[Dap][Dab][Dab][dF]L[Dab][Dab]T; lactam 4-C),PA-1646 MBC,[1],8 mg/L
same,AB-1649 MIC,[2],4 mg/L
same,AB-3167 MIC,[3],1 mg/L
same,PA-1646 MIC,[4],4 mg/L
same,PA01 MIC,[5],1 mg/L
same,AB-1649 MBC,[6],4 mg/L
same,EC-1 MIC,[7],0.25 mg/L
same,CC50 at 24 h,[8],77 µM
CC(C)C[C@@H]1NC(=O)[C@@H](Cc2ccccc2)NC(=O)[C@H](CCN)NC(=O)[C@@H](NC(=O)[C@H](CN)NC(=O)[C@@H](NC(=O)[C@H](CCN)NC(=O)c2ccc(-c3ccccc3)nc2)[C@@H](C)O)CCNC(=O)[C@H]([C@@H](C)O)NC(=O)[C@H](CCN)NC(=O)[C@H](CCN)NC1=O [Example 27] (X16-[Dab]T[Dap][Dab][Dab][dF]L[Dab][Dab]T; lactam 4-C),PA-1646 MBC,[1],4 mg/L
same,AB-1649 MIC,[2],4 mg/L
same,AB-3167 MIC,[3],0.25 mg/L
same,PA-1646 MIC,[4],2 mg/L
same,PA01 MIC,[5],0.5 mg/L
same,AB-1649 MBC,[6],4 mg/L
same,EC-1 MIC,[7],0.125 mg/L
same,CC50 at 24 h,[8],73 µM
CC(C)C[C@@H]1NC(=O)[C@@H](Cc2ccccc2)NC(=O)[C@H](CCN)NC(=O)[C@@H](NC(=O)[C@H](CN)NC(=O)[C@@H](NC(=O)[C@H](CCN)NC(=O)c2ccc(Cl)c(-c3ccccn3)c2)[C@@H](C)O)CCNC(=O)[C@H]([C@@H](C)O)NC(=O)[C@H](CCN)NC(=O)[C@H](CCN)NC1=O [Example 28] (X25-[Dab]T[Dap][Dab][Dab][dF]L[Dab][Dab]T; lactam 4-C),PA-1646 MBC,[1],16 mg/L
same,AB-1649 MIC,[2],4 mg/L
same,AB-3167 MIC,[3],0.25 mg/L
same,PA-1646 MIC,[4],4 mg/L
same,PA01 MIC,[5],1 mg/L
same,AB-1649 MBC,[6],4 mg/L
same,EC-1 MIC,[7],0.25 mg/L
same,CC50 at 24 h,[8],72 µM
COc1cccc(-c2cc(C(=O)N[C@@H](CCN)C(=O)N[C@H](C(=O)N[C@@H](CN)C(=O)N[C@H]3CCNC(=O)[C@H]([C@@H](C)O)NC(=O)[C@H](CCN)NC(=O)[C@H](CCN)NC(=O)[C@H](CC(C)C)NC(=O)[C@@H](Cc4ccccc4)NC(=O)[C@H](CCN)NC3=O)[C@@H](C)O)ccn2)c1 [Example 29] (X22-[Dab]T[Dap][Dab][Dab][dF]L[Dab][Dab]T; lactam 4-C),PA-1646 MBC,[1],32 mg/L
same,AB-1649 MIC,[2],4 mg/L
same,AB-3167 MIC,[3],0.5 mg/L
same,PA-1646 MIC,[4],4 mg/L
same,PA01 MIC,[5],1 mg/L
same,AB-1649 MBC,[6],4 mg/L
same,EC-1 MIC,[7],0.5 mg/L
same,CC50 at 24 h,[8],70 µM
CC(C)C[C@@H]1NC(=O)[C@@H](Cc2ccccc2)NC(=O)[C@H](CCN)NC(=O)[C@@H](NC(=O)[C@H](CN)NC(=O)[C@@H](NC(=O)[C@H](CCN)NC(=O)c2cncc(-c3ccccc3)c2)[C@@H](C)O)CCNC(=O)[C@H]([C@@H](C)O)NC(=O)[C@H](CCN)NC(=O)[C@H](CCN)NC1=O [Example 30] (X27-[Dab]T[Dap][Dab][Dab][dF]L[Dab][Dab]T; lactam 4-C),PA-1646 MBC,[1],4 mg/L
same,AB-1649 MIC,[2],4 mg/L
same,AB-3167 MIC,[3],0.25 mg/L
same,PA-1646 MIC,[4],2 mg/L
same,PA01 MIC,[5],0.5 mg/L
same,AB-1649 MBC,[6],4 mg/L
same,EC-1 MIC,[7],0.125 mg/L
same,CC50 at 24 h,[8],56 µM
CC(C)C[C@@H]1NC(=O)[C@@H](Cc2ccccc2)NC(=O)[C@H](CCN)NC(=O)[C@@H](NC(=O)[C@H](CN)NC(=O)[C@@H](NC(=O)[C@H](CCN)NC(=O)c2ccnc(-c3ccc(C#N)c(F)c3)c2)[C@@H](C)O)CCNC(=O)[C@H]([C@@H](C)O)NC(=O)[C@H](CCN)NC(=O)[C@H](CCN)NC1=O [Example 31] (X2-[Dab]T[Dap][Dab][Dab][dF]L[Dab][Dab]T; lactam 4-C),PA-1646 MBC,[1],8 mg/L
same,AB-1649 MIC,[2],4 mg/L
same,AB-3167 MIC,[3],0.5 mg/L
same,PA-1646 MIC,[4],4 mg/L
same,PA01 MIC,[5],1 mg/L
same,AB-1649 MBC,[6],16 mg/L
same,EC-1 MIC,[7],0.5 mg/L
same,CC50 at 24 h,[8],55 µM
CC(C)C[C@@H]1NC(=O)[C@@H](Cc2ccccc2)NC(=O)[C@H](CCN)NC(=O)[C@@H](NC(=O)[C@H](CN)NC(=O)[C@@H](NC(=O)[C@H](CCN)NC(=O)c2cccc(-c3ccc(C#N)cc3)c2)[C@@H](C)O)CCNC(=O)[C@H]([C@@H](C)O)NC(=O)[C@H](CCN)NC(=O)[C@H](CCN)NC1=O [Example 32] (X17-[Dab]T[Dap][Dab][Dab][dF]L[Dab][Dab]T; lactam 4-C),PA-1646 MBC,[1],4 mg/L
same,AB-1649 MIC,[2],4 mg/L
same,AB-3167 MIC,[3],0.5 mg/L
same,PA-1646 MIC,[4],2 mg/L
same,PA01 MIC,[5],0.5 mg/L
same,AB-1649 MBC,[6],4 mg/L
same,EC-1 MIC,[7],0.25 mg/L
same,CC50 at 24 h,[8],33 µM
CC(C)C[C@@H]1NC(=O)[C@@H](Cc2ccccc2)NC(=O)[C@H](CCN)NC(=O)[C@@H](NC(=O)[C@H](CN)NC(=O)[C@@H](NC(=O)[C@H](CCN)NC(=O)c2ccc(F)c(-c3ccc(C#N)cc3)c2)[C@@H](C)O)CCNC(=O)[C@H]([C@@H](C)O)NC(=O)[C@H](CCN)NC(=O)[C@H](CCN)NC1=O [Example 33] (X13-[Dab]T[Dap][Dab][Dab][dF]L[Dab][Dab]T; lactam 4-C),PA-1646 MBC,[1],8 mg/L
same,AB-1649 MIC,[2],4 mg/L
same,AB-3167 MIC,[3],1 mg/L
same,PA-1646 MIC,[4],2 mg/L
same,PA01 MIC,[5],2 mg/L
same,AB-1649 MBC,[6],4 mg/L
same,EC-1 MIC,[7],0.5 mg/L
same,CC50 at 24 h,[8],30 µM
